This passage reports IC50 and AC50 results from patent US20250154169A1, “COMPOUNDS AND METHODS FOR MODULATING SPLICING” (REMIX THERAPEUTICS INC., priority 2021, published 2025).

Assay [1] relates to HTT mRNA. The assay is described as follows: Splicing RT-qPCR assay, HTT canonical (CJ) and alternative (AJ) junction mRNA. It is filed as cell-based, human. The following applies: Homo sapiens, A673 or K562 cells, 24 hours compound treatment; for IC50: 24 h, read-out: HTT CJ (IC50, decrease in canonical junction mRNA); for AC50: read-out: HTT AJ (AC50, increase in alternative junction mRNA). Here is the method: (§1) Compounds described herein were used to modulate RNA transcript abundance in cells. The expression of a target mRNA was measured by detecting the formation of an exon-exon junction in the canonical transcript (CJ). A compound mediated exon-inclusion event was detected by observing an increase in formation of a new junction with an alternative exon (AJ). Real-time qPCR assays were used to detect these splicing switches and interrogate the potency of various compounds towards different target genes. A high-throughput real time quantitative PCR (RT-qPCR) assay was developed to measure these two isoforms of the mRNA (CJ and AJ) for exemplary genes, such as HTT, SMN2, and MYB, together with a control housekeeping gene, GAPDH or GUSB or PPIA, used for normalization. Briefly, the A673 or K562 cell line was treated with various compounds described herein (e.g., compounds of Formula (I)). After treatment, the levels of the HTT, MYB, or SMN2 mRNA targets were determined from each sample of cell lysate by cDNA synthesis followed by qPCR.
(§2) • Cells-to-CT 1-step kit: ThermoFisher A25602, Cells-to-CT lysis reagent: ThermoFisher 4391851C, TaqMan™ Fast Virus 1-Step Master Mix: ThermoFisher 4444436 • GAPDH: VIC-PL, ThermoFisher 4326317E (Assay: Hs99999905_m1)—used for K562/suspension cell lines • GUSB: VIC-PL, ThermoFisher 4326320E (Assay: Hs99999908_m1)—used for K562/suspension cell lines • PPIA: VIC-PL, ThermoFisher 4326316E (Assay: Hs99999904_m1)—used for A673/adherent cell lines
(§3) The A673 cell line was cultured in DMEM with 10% FBS. Cells were diluted with full growth media and plated in a 96-well plate (15,000 cells in 100 ul media per well). The plate was incubated at 37° C. with 5% CO2 for 24 hours to allow cells to adhere. An 11-point 3-fold serial dilution of the compounds was made in DMSO then diluted in media in an intermediate plate. Compounds were transferred from the intermediate plate to the cell plate with the top dose at a final concentration of 10 uM in the well. Final DMSO concentration was kept at or below 0.25%. The cell plate was returned to the incubator at 37° C. with 5% CO2 for an additional 24 hours.
(§4) The K562 cell line was cultured in IMDM with 10% FBS. For K562, cells were diluted with full growth media and plated in either a 96-well plate (50,000 cells in 50 uL media per well) or a 384-well plate (8,000-40,000 cells in 45 uL media per well). An 11-point 3-fold serial dilution of the compounds were made in DMSO then diluted in media in an intermediate plate. Compound was transferred from the intermediate plate to the cell plate with the top dose at a final concentration of 10 uM in the well. Final DMSO concentration was kept at or below 0.25%. Final volume was 100 uL for 96-well plate and 50 uL for 384-well plate. The cell plate was then placed in an incubator at 37° C. with 5% CO2 for 24 hours.
(§5) The cells were then gently washed with 50 uL-100 uL cold PBS before proceeding to addition of lysis buffer. 30 uL-50 uL of room temperature lysis buffer with DNAse I (and optionally RNAsin) was added to each well. Cells were shaken/mixed thoroughly at room temperature for 5-10 minutes for lysis to take place and then 3 uL-5 uL of room temperature stop solution was added and wells were shaken/mixed again. After 2-5 minutes, the cell lysate plate was transferred to ice for RT-qPCR reaction setup. The lysates could also be frozen at −80° C. for later use.
(§6) In some cases, a direct lysis buffer was used. An appropriate volume of 3× lysis buffer (10 mM Tris, 150 mM NaCl, 1.5%-2.5% Igepal and 0.1-1 U/uL RNAsin, pH 7.4) was directly added to either K562 or A673 cells in media and mixed by pipetting 3 times. The plates were then incubated at room temperature with shaking/rocking for 20-50 minutes to allow for lysis to take place. After this time, the cell lysate plate was transferred to ice to set up for the RT-qPCR reactions. The lysates could also be frozen at −80° C. for later use. […]

In assay [2] the test system is MYB mRNA. The assay is described as follows: Splicing RT-qPCR assay, MYB canonical (CJ) and alternative (AJ) junction mRNA. The class given is cell-based, human. The following applies: Homo sapiens, 24 h, A673 or K562 cells, 24 hours compound treatment, RT-qPCR; for AC50: read-out: MYB AJ (AC50, increase in alternative junction mRNA); for IC50: read-out: MYB CJ (IC50, decrease in canonical junction mRNA). Here is the method: as §1, §2, §3, §4, §5, §6
(In qPCR the cycle at which signal appears reflects the starting amount.)

Broadly, the IC50 is the concentration that inhibits the measured activity by half. The AC50 is the concentration at which the activity in the assay is half-maximal. As for `Cn1cc2c(N3CCNCC3)ccc(C(=O)Nc3ccc4c(c3)oc(=O)n4C)c2n1` [Compound 499, 2-methyl-N-(3-methyl-2-oxo-2,3-dihydrobenzo[d]oxazol-6-yl)-4-(piperazin-1-yl)-2H-indazole-7-carboxamide], in assay [1], the half-inhibitory concentration (IC50) was more than 10000 nM and the half-maximal activity concentration (AC50) was more than 10000 nM. Also, in assay [2], the half-maximal activity concentration (AC50) was more than 10000 nM and the concentration for half-maximal inhibition (IC50) is more than 10000 nM.
On to `CCNC1CCN(c2ccc(C/N=C3\C=C(F)c4nc(C)cn4C3)c3nn(C)cc23)CC1` [Compound 500, N-ethyl-1-[7-({[(6E)-8-fluoro-2-methyl-5H-imidazo[1,2-a]pyridin-6-ylidene]amino}methyl)-2-methylindazol-4-yl]piperidin-4-amine], for which, in assay [1], the IC50 is more than 10000 nM and the AC50 was more than 10000 nM. Moreover, in assay [2], the AC50 is more than 10000 nM and the concentration for half-maximal inhibition (IC50) was more than 10000 nM.
On to `CCNC1CCN(c2ccc(C(=O)Nc3cn4cc(C)nc4c(F)c3OC)c3oc(C)cc23)CC1` [Compound 501, 4-(4-(ethylamino)piperidin-1-yl)-N-(8-fluoro-7-methoxy-2-methylimidazo[1,2-a]pyridin-6-yl)-2-methylbenzofuran-7-carboxamide 2,2,2-trifluoroacetate], for which, in assay [1], the IC50 is less than 100 nM and the concentration at half-maximal activity (AC50) is less than 100 nM. For the same compound, in assay [2], the concentration at half-maximal activity (AC50) is less than 100 nM and the IC50 was less than 100 nM.
Consider `C=Cn1cc2c(N3CCC(NC)CC3)ccc(C(=O)Nc3cc(F)c4nc(C)cn4c3)c2n1` [Compound 502, 2-ethenyl-N-{8-fluoro-2-methylimidazo[1,2-a]pyridin-6-yl}-4-[4-(methylamino)piperidin-1-yl]indazole-7-carboxamide], for which, in assay [1], the IC50 was less than 100 nM and the concentration at half-maximal activity (AC50) is 100 to 1000 nM. In assay [2], the AC50 was less than 100 nM and the IC50 was less than 100 nM.
In the case of `C=Cn1cc2c(N3CCC(NCC)CC3)ccc(C(=O)Nc3cc(F)c4nc(C)cn4c3)c2n1` [Compound 503, 2-ethenyl-4-[4-(ethylamino)piperidin-1-yl]-N-{8-fluoro-2-methylimidazo[1,2-a]pyridin-6-yl}indazole-7-carboxamide], in assay [1], the IC50 lay in the range of 100 to 1000 nM and the AC50 is less than 100 nM. In addition, in assay [2], the half-maximal activity concentration (AC50) was less than 100 nM and the IC50 is less than 100 nM.
Regarding `COCc1nc2c(F)cc(NC(=O)c3ccc(N4CCNCC4)c4cn(C)nc34)cc2o1` [Compound 504, N-[4-fluoro-2-(methoxymethyl)-1,3-benzoxazol-6-yl]-2-methyl-4-(piperazin-1-yl) indazole-7-carboxamide], in assay [1], the 50% inhibitory concentration (IC50) lay in the range of 1000 to 10000 nM and the AC50 fell in the range of 1000 to 10000 nM. In addition, in assay [2], the AC50 was 1000 to 10000 nM and the concentration for half-maximal inhibition (IC50) lay in the range of 1000 to 10000 nM.
With `CCn1cc2c(OC3CCNCC3)ccc(C(=O)Nc3cc(F)c4nc(C)cn4c3)c2n1` [Compound 505, 2-ethyl-N-{8-fluoro-2-methylimidazo[1,2-a]pyridin-6-yl}-4-(piperidin-4-yloxy) indazole-7-carboxamide], in assay [1], the half-maximal inhibitory concentration (IC50) fell in the range of 1000 to 10000 nM and the AC50 fell in the range of 1000 to 10000 nM. Also, in assay [2], the half-maximal activity concentration (AC50) lay in the range of 100 to 1000 nM and the 50% inhibitory concentration (IC50) was in the range of 100 to 1000 nM.
Take `CCn1cc2c(C3=CCNCC3)ccc(C(=O)Nc3cc(F)c4nc(C)cn4c3)c2n1` [Compound 506, 2-ethyl-N-{8-fluoro-2-methylimidazo[1,2-a]pyridin-6-yl}-4-(1,2,3,6-tetrahydropyridin-4-yl) indazole-7-carboxamide]: in assay [1], the IC50 lay within 100 to 1000 nM and the half-maximal activity concentration (AC50) fell in the range of 1000 to 10000 nM. Also, in assay [2], the half-maximal activity concentration (AC50) was 100 to 1000 nM and the concentration for half-maximal inhibition (IC50) fell in the range of 100 to 1000 nM.
For the compound `Cc1cn2cc(NC(=O)c3ccc(N4CCNCC4)c4cn(C)nc34)nc(C#N)c2n1` [Compound 507, N-{8-cyano-2-methylimidazo[1,2-a]pyrazin-6-yl}-2-methyl-4-(piperazin-1-yl) indazole-7-carboxamide], the results for the 50% inhibitory concentration (IC50) in assay [1] and in assay [2] were 1000 to 10000 nM and 100 to 1000 nM, respectively. Further, the AC50 fell in the range of 1000 to 10000 nM in assay [1] and 100 to 1000 nM in assay [2].
For the compound `CCn1cc2c(N3CCC(CC)(N(C)C)CC3)ccc(C(=O)Nc3cc(F)c4nc(C)cn4c3)c2n1` [Compound 508, 4-[4-(dimethylamino)-4-ethylpiperidin-1-yl]-2-ethyl-N-{8-fluoro-2-methylimidazo[1,2-a]pyridin-6-yl}indazole-7-carboxamide], in assay [1], the half-inhibitory concentration (IC50) was less than 100 nM and the concentration at half-maximal activity (AC50) fell in the range of 100 to 1000 nM. In addition, in assay [2], the AC50 was less than 100 nM and the IC50 was less than 100 nM.
`Cc1nc2c(F)cc(NC(=O)c3ccc(N4CCNCC4)c4cn(C)nc34)cc2[nH]1` [Compound 509]: in assay [1], the IC50 is more than 10000 nM and the half-maximal activity concentration (AC50) is more than 10000 nM. In assay [2], the AC50 is 1000 to 10000 nM and the half-inhibitory concentration (IC50) was 1000 to 10000 nM.
On to `COCCn1cc2c(N3CCNCC3)ccc(C(=O)Nc3cn4cc(C)nc4c(OC)n3)c2n1` [Compound 510, N-{8-methoxy-2-methylimidazo[1,2-a]pyrazin-6-yl}-2-(2-methoxyethyl)-4-(piperazin-1-yl) indazole-7-carboxamide], for which the IC50 in assay [1] lay in the range of 1000 to 10000 nM; in assay [2], 100 to 1000 nM. The concentration at half-maximal activity (AC50) in assay [1] fell in the range of 1000 to 10000 nM; in assay [2] it was 100 to 1000 nM.
On to `Cc1nc2c(C)cc(NC(=O)c3ccc(N4CCNCC4)c4cn(C)nc34)nc2o1` [Compound 511, N-{2,7-dimethyl-[1,3]oxazolo[5,4-b]pyridin-5-yl}-2-methyl-4-(piperazin-1-yl) indazole-7-carboxamide], for which the concentration for half-maximal inhibition (IC50) in assay [1] and in assay [2] was 100 to 1000 nM throughout. The AC50 in assay [1] and in assay [2] was 100 to 1000 nM in each case.
With `CCn1cc2c([C@@]34CCNCC3C4)ccc(C(=O)Nc3cc(F)c4nc(C)cn4c3)c2n1` (some centres unmarked) [Compound 513], the IC50 in assay [1] was in the range of 1000 to 10000 nM; in assay [2] it was 100 to 1000 nM. In addition, the AC50 in assay [1] is more than 10000 nM; in assay [2], 100 to 1000 nM.
Regarding `Cn1cc2c(N3CCNCC3)ccc(C(=O)Nc3cc(F)c4nc(CF)oc4c3)c2n1` [Compound 514, N-[4-fluoro-2-(fluoromethyl)-1,3-benzoxazol-6-yl]-2-methyl-4-(piperazin-1-yl) indazole-7-carboxamide], the IC50 was 100 to 1000 nM in assay [1] and less than 100 nM in assay [2]. The concentration at half-maximal activity (AC50) in assay [1] is 100 to 1000 nM; in assay [2] it was less than 100 nM.
Take `CCn1cc2c(N3CCC(CC)(NC)CC3)ccc(C(=O)Nc3cc(F)c4nc(C)cn4c3)c2n1` [Compound 515, 2-ethyl-4-[4-ethyl-4-(methylamino)piperidin-1-yl]-N-{8-fluoro-2-methylimidazo[1,2-a]pyridin-6-yl}indazole-7-carboxamide]: in assay [1], the half-inhibitory concentration (IC50) is 100 to 1000 nM and the AC50 lay within 100 to 1000 nM. Besides, in assay [2], the AC50 is less than 100 nM and the half-inhibitory concentration (IC50) was less than 100 nM.
With `CCN(CC)C1(C)CCN(c2ccc(C(=O)Nc3cc(F)c4nc(C)cn4c3)c3nn(CC)cc23)CC1` [Compound 517, 4-[4-(diethylamino)-4-methylpiperidin-1-yl]-2-ethyl-N-{8-fluoro-2-methylimidazo[1,2-a]pyridin-6-yl}indazole-7-carboxamide trifluoroacetic acid], in assay [1], the 50% inhibitory concentration (IC50) was in the range of 1000 to 10000 nM and the AC50 is more than 10000 nM. In addition, in assay [2], the half-maximal activity concentration (AC50) lay within 100 to 1000 nM and the IC50 is 100 to 1000 nM.
